According to US10660878B2, “Methods of treating dementia and pharmaceutical compositions thereof” (H. Lundbeck A/S, priority 2012, dated 2020):
“Also recorded” adds a separate entry of the source. Where two headings read alike, the source gives them in different places.

Legend:
[1] = Phase I PK study in the elderly and AD study 12936A pharmacokinetics; type: in vivo, human; details: for half-life: human, plasma, read-out: elimination half life (converted)
Procedure: In total, the dataset used in the popPK model consisted of 265 patients. The doses administered, single or multiple, were in the range of 9.0-300 mg.

[2] = test system: patients with schizophrenia; experiment: Study 12450A, adjunctive treatment to risperidone in schizophrenia; type: in vivo, human; details: 120 mg/day BID
Procedure: Overall improvement in schizophrenia symptoms was assessed by using the Positive and Negative Syndrome Scale (PANSS) total score.
(§1) The AD study cited in the Background section is referred to in this application as study 12936A. The schizophrenia study cited in the Background section is referred to in this application as study 12450A.

[3] = test system: patients with Alzheimer's disease; experiment: Study 12936A, adjunctive treatment to donepezil in Alzheimer's disease; type: in vivo, human; details: 90 mg daily (3×30 mg) plus 10 mg/day of donepezil
From the text: In 2012, it was reported that a randomized, double blind, placebo controlled trial conducted in Europe, Canada and Australia met its primary endpoint in the treatment of AD.
An issue for that dose selection was to ensure that the maximum exposure level fell under the maximum exposure limit which had been established from non-clinical toxicology studies. Accordingly, a fixed dose of three times in the study was introduced.
as §1

[4] = Plasma concentration of Compound I (PK) in PET study Part B; type: in vivo, human; details: P2 scans, post-dose duration 10-51 hours
Procedure: Dosing schemes include 5 mg (5Q; Part B4) once daily or QD, 30 mg QD (30Q; Part B3), 30 mg b.i.d. (30B; Part B2), and 60 mg b.i.d (60B; Part B1). […] Model 2 was supported over Model 1 in Pu, CN, and vS by Akaike information criterion (AIC; The smaller the AIC value the better the fit) (Akaike 1974) and F-test comparing residual sums of squares (RSS) of the two models (Table 1).

5-HT6 receptor [5] = molecular target: T1, 5-HT6 receptor (Homo sapiens, UniProt P50406); experiment: PET 5-HT6 receptor occupancy after multiple oral doses, [^11C]LuPET radioligand (Part B); type: in vivo; parameters: from tissue; host or cells: brain of living healthy male subjects (putamen, caudate nucleus, ventral striatum), in vivo PET
T1 sequence (P50406 whole entry): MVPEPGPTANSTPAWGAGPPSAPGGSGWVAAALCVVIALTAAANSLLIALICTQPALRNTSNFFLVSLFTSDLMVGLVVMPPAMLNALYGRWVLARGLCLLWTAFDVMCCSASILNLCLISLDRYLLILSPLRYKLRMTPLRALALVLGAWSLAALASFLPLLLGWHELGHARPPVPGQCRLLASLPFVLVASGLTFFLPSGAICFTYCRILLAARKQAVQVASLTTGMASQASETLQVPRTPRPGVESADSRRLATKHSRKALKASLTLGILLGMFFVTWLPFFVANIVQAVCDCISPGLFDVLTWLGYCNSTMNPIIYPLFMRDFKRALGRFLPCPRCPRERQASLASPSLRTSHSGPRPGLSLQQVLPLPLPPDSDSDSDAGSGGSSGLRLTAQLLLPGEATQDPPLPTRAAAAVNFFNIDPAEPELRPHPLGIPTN
Procedure: (§2) As the radioligand has not previously been dosed to humans it was initially evaluated in the human brain to identify an optimal method for quantification and validate the radioligand as a PET tracer (Part A).
Eight healthy male subjects (Age: 30.6±7.7 years; range: 22-44 years) participated in Part A, and sixteen healthy male subjects (Age: 32.3±7.6 years; range: 21-44 years) participated in Part B of this study.
(§3) PET studies were performed on the GE Advance Tomograph (GE Medical Systems, Waukesha, Wis., USA). Subjects had one venous catheter for the radioligand injection, and one arterial catheter to obtain arterial blood samples for the determination of radioactivity in plasma. Then, subjects were positioned in the scanner with the head restrained with a custom-made thermoplastic mask to reduce the head motion during PET data acquisition. Then, a 10 minute attenuation scan was performed using a rotating ^68Ge source for attenuation correction. Dynamic PET acquisition was then performed in a three-dimensional mode for 90 min following an intravenous bolus injection of [^11C]LuPET. A total of 30 PET frames were obtained (4×15, 4×30, 3×60, 2×120, 5×240, and 12×300 seconds). […] Selected samples taken at 0, 5, 10, 30, 45, 60, and 90 min were analyzed by HPLC for the presence of the radioligand and its radioactive metabolites as described elsewhere (Hilton et al., 2000).
Volumes of interest (VOIs): Cortical VOIs were automatically defined using Freesurfer software and combined into standard regions including: frontal (Fr), temporal (Tp), parietal (Pa), and occipital (Oc) cortices, fusiform gyms (Fs), cingulate (Cg), and insula (In). Subcortical regions were defined with FIRST software (Patenaude et al., 2011) and manually adjusted on individual MRIs. Subcortical regions included putamen (Pu), caudate nucleus (CN), ventral striatum (vS), globus pallidus (GP), thalamus (Th), hippocampus (Hp), and amygdala (Am). VOIs were transferred from MRI to PET spaces following MRI-to-PET coregistration parameters given by SPMS (Ashbumer J, Friston 2003; Macs et al., 1997) to obtain time-activity curves (TACs) of regions. A total of 25 regions per scan were employed for methodological evaluations (Part A) while occupancy calculation was limited to Pu, CN, and vS (Part B).
Derivation of PET outcome variables: Primary PET outcome variables are total distribution volume, VT and binding potential, BPND (=fND·Bavail/KD, where fND refers to the fraction of non-displaceable compartment, Bavail stands for the density of available (unoccupied) 5-HT6 receptors, and KD stands for the dissociation constant; Innis et al., 2007).
A set of standard plasma input methods were employed to identify the optimal method for derivation of regional distribution volume (VT) for [^11C]LuPET including, a one tissue compartmental model (OTCM) with three parameters (K1, and k2′; See Koeppe et al., 1991 for the definitions, and v0, tissue vascular volume), two tissue compartmental models with five parameters (K1, k2, k3, k4, and v0; See Innis et al., 2007 for the definitions), without and with constraining the K1-k2 ratio (non-displaceable distribution volume, VND (Abi-Dargham et al., 1994) to the cerebellum estimate (TTCM-UC and TTCM-C, respectively), and the plasma reference graphical analysis (PRGA; Logan et al., 1990). In TTCM-UC and TTCM-C, BPND was given as the k3-k4 ratio.
In addition, tissue reference methods, namely the multilinear reference tissue method with 2 parameters (MRTM2; Ichise et al., 2002) and reference tissue graphical analysis (RTGA; Logan et al., 1996) were applied.
Akaike information criteria (AIC; Akaike 1974; Burnham and Anderson 2004) was used to examine goodness of fit for compartmental models and for the examination of occupancy-PK relationships using Equation 3. Results

5-HT6 receptor [6] = molecular target: T1, 5-HT6 receptor; experiment: PK/PD Emax model of 5-HT6 occupancy fitted to PET data; type: in vivo; parameters: from tissue; host or cells: brain of living healthy male subjects (putamen, caudate nucleus, ventral striatum), in vivo PET; details: caudate nucleus region; non-linear mixed effect modelling
Procedure: In total three PET scans were performed per subject, the first at baseline, the second around tmax on last day of dosing and the last in the interval 10-51 hours post dose on the last day of dosing.
In order to allow for estimation of the inter-subject variability in the occupancy, non-linear mixed effect modelling was performed where the inter-subject variability was modelled as an exponential term on EC50.

5-HT6 receptor [7] = molecular target: T1, 5-HT6 receptor; experiment: Displacement of [^11C]LuPET binding by olanzapine, PET (Part A); details: one dose of 10 mg, scan 5 hours after dose; across brain regions
From the text: In Part A, baseline scans were repeated on the same day (n=1) or separate days (n=7) ranging from 1 to 18 days apart to test reproducibility of PET outcome variables.
[formula] where superscripts indicate BPND of baseline (B) and post-dose (D), respectively.

[8] = Evaluation of [^11C]LuPET as PET tracer in the human brain; type: in vivo
Procedure: as §2
as §3, with “2000). […]” for “2000).”

[9] = Caudate nucleus (CN), PRGA, 3H + P2 pooled
[10] = Caudate nucleus (CN), PRGA, 3H scans
[11] = Caudate nucleus (CN), PRGA, P2 scans
[12] = Caudate nucleus (CN), RTGA, 3H + P2 pooled
[13] = Caudate nucleus (CN), RTGA, 3H scans
[14] = Caudate nucleus (CN), RTGA, P2 scans
[15] = Putamen (Pu), PRGA, 3H + P2 pooled
[16] = Ventral striatum (vS), PRGA, 3H + P2 pooled
[17] = Ventral striatum (vS), PRGA, 3H scans
[18] = Ventral striatum (vS), PRGA, P2 scans

For `Fc1ccc2c(CCNCc3cccc(OCC(F)(F)C(F)F)c3)c[nH]c2c1` [Compound I, N-[2-(6-fluoro-1H-indol-3-yl)ethyl]-3-(2,2,3,3-tetrafluoropropoxy)benzylamine], which clearance ([1]; elderly compared to younger subjects) is on record?
Its clearance is “reduced”.

And the half-life ([1]; elderly population)?
Its half-life is ~19 h.

What about the half-life ([1]; young healthy subjects) of the same compound?
The half-life was ~12 h.

And the “PANSS total score vs placebo” value [2]?
The value was “did not offer any treatment advantage over placebo”.

And the “overall neurocognitive performance (BACS composite Z-score, PANSS cognitive subscale scores) vs placebo” value [2]?
Its value is “did not appear to be any treatment advantage over placebo”.

What about the “secondary endpoints (global impression, daily living activities) vs donepezil treated patients” value [3] of the same compound?
Its value is “positive results”.

What about the “cognitive function (ADAS-cog) vs placebo plus donepezil” value ([3]; 278 patients) of the same compound?
Its value is “significantly improved”.

And the “PK range (plasma concentration)” value [4]?
The value was 0.54 to 204 ng/mL.

And the receptor occupancy at 30 mg (5-HT6 receptor [5]; 30 mg BID, at Cmax)?
The receptor occupancy at 30 mg was > 85%.

What about the receptor occupancy at 30 mg (5-HT6 receptor [5]; 30 mg QD, at Cmax) of the same compound?
Its receptor occupancy at 30 mg is ~80%.

And the receptor occupancy at 60 mg (5-HT6 receptor [5]; 60 mg BID, at Cmax)?
The receptor occupancy at 60 mg was > 90%.

What about the “PK values predicted to generate 80% occupancy” value (5-HT6 receptor [5]; CN and vS by PRGA) of the same compound?
Its value is “about 120 ng/mL”.

And the “PK values predicted to generate 80% occupancy” value (5-HT6 receptor [5]; CN by RTGA)?
The value was “about 100 ng/mL”.

And the “80% RO (PK predicted to exert 80% occupancy)” value (5-HT6 receptor [5]; [9])?
Its value is 51.1 ng/mL.

What about the Omax (5-HT6 receptor [5]; [9]) of the same compound?
Its Omax is 91.3%.

What about the “80% RO (PK predicted to exert 80% occupancy)” value (5-HT6 receptor [5]; [10]) of the same compound?
Its value is 50.1 ng/mL.

What about the Omax (5-HT6 receptor [5]; [10]) of the same compound?
The Omax was 90.3%.

What about the “80% RO (PK predicted to exert 80% occupancy)” value (5-HT6 receptor [5]; [11]) of the same compound?
The value was 48.0 ng/mL.

And the Omax (5-HT6 receptor [5]; [11])?
Its Omax is 93.9%.

What about the “80% RO (PK predicted to exert 80% occupancy)” value (5-HT6 receptor [5]; [12]) of the same compound?
Its value is 108.4 ng/mL.

What about the Omax (5-HT6 receptor [5]; [12]) of the same compound?
Its Omax is 85.7%.

What about the “80% RO (PK predicted to exert 80% occupancy)” value (5-HT6 receptor [5]; [13]) of the same compound?
The value was 102.8 ng/mL.

What about the Omax (5-HT6 receptor [5]; [13]) of the same compound?
The Omax was 85.2%.

What about the “80% RO (PK predicted to exert 80% occupancy)” value (5-HT6 receptor [5]; [14]) of the same compound?
The value was 101.5 ng/mL.

And the Omax (5-HT6 receptor [5]; [14])?
The Omax was 87.1%.

What about the “PK values predicted to generate 80% occupancy” value (5-HT6 receptor [5]; Pu by PRGA) of the same compound?
Its value is “about 50 ng/mL”.

What about the “80% RO (PK predicted to exert 80% occupancy)” value (5-HT6 receptor [5]; [15]) of the same compound?
The value was 131.7 ng/mL.

What about the Omax (5-HT6 receptor [5]; [15]) of the same compound?
The Omax was 83.2%.

What about the “80% RO (PK predicted to exert 80% occupancy)” value (5-HT6 receptor [5]; Putamen (Pu), PRGA, 3H scans) of the same compound?
The value was 137.8 ng/mL.

And the Omax (5-HT6 receptor [5]; Putamen (Pu), PRGA, 3H scans)?
Its Omax is 82.8%.

And the “80% RO (PK predicted to exert 80% occupancy)” value (5-HT6 receptor [5]; Putamen (Pu), PRGA, P2 scans)?
Its value is 116.7 ng/mL.

And the Omax (5-HT6 receptor [5]; Putamen (Pu), PRGA, P2 scans)?
The Omax was 83.8%.

What about the Omax (5-HT6 receptor [5]; Putamen (Pu), RTGA, 3H + P2 pooled) of the same compound?
Its Omax is 77.3%.

What about the Omax (5-HT6 receptor [5]; Putamen (Pu), RTGA, 3H scans) of the same compound?
The Omax was 7.5%.

And the Omax (5-HT6 receptor [5]; Putamen (Pu), RTGA, P2 scans)?
Its Omax is 76.6%.

And the “80% RO (PK predicted to exert 80% occupancy)” value (5-HT6 receptor [5]; [16])?
Its value is 121.0 ng/mL.

And the Omax (5-HT6 receptor [5]; [16])?
The Omax was 86.0%.

What about the “80% RO (PK predicted to exert 80% occupancy)” value (5-HT6 receptor [5]; [17]) of the same compound?
The value was 66.5 ng/mL.

What about the Omax (5-HT6 receptor [5]; [17]) of the same compound?
Its Omax is 85.5%.

And the “80% RO (PK predicted to exert 80% occupancy)” value (5-HT6 receptor [5]; [18])?
Its value is 133.5 ng/mL.

And the Omax (5-HT6 receptor [5]; [18])?
The Omax was 89.7%.

What about the Omax (5-HT6 receptor [5]; Ventral striatum (vS), RTGA, 3H + P2 pooled) of the same compound?
Its Omax is 76.5%.

What about the Omax (5-HT6 receptor [5]; Ventral striatum (vS), RTGA, 3H scans) of the same compound?
Its Omax is 78.2%.

What about the Omax (5-HT6 receptor [5]; Ventral striatum (vS), RTGA, P2 scans) of the same compound?
Its Omax is 72.1%.

And the “5-HT6 receptor occupancy 24 hours post dose” value (5-HT6 receptor [5]; after multiple dosages, 24 hours post dose vs Cmax)?
Its value is “only decreased slightly; also recorded: maintained”.

What about the Omax (5-HT6 receptor [5]; oral administration, overall study estimate based on Pu and CN) of the same compound?
Its Omax is “about 90%”.

And the “Emax (maximal occupancy)” value (5-HT6 receptor [6])?
Its value is 91%.

With `Cc1cc2c(s1)Nc1ccccc1N=C2N1CCN(C)CC1` [olanzapine] as the compound, how does the “displacement of binding of [^11C]LuPET” value (5-HT6 receptor [7]) read?
The value was “about 80%”.

With `[11CH3]N1CCN(c2cccc3cc(S(=O)(=O)c4ccccc4)cnc23)CC1` [[^11C]LuPET] as the compound, how does the “k2 (brain-to-blood clearance rate constant)” value ([8]; cerebellum (Cb), mean across baseline scans, TTCM-UC) read?
The value was 0.076 min⁻¹.

And the “distribution volume VT” value ([8]; striatum target regions)?
Its value is ~10 mL/mL.
